Test results: PubChem BioAssay AID1845201 (Molecular Pharmacology Branch, DTP, NCI, 2023)
pIC50: −log10 of the molar value.

Test system: COR L88 complex tumor spheroid viability
Assay: Anticancer human tumor COR L88 cell line growth inhibition;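 further: compound exposure lasted 7 days before viability readout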;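 on viability, T/C: percent of DMSO vehicle-treated spheroids = 100%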
Settings: for pIC50: curve of first compound; for viability, T/C: stronger effect = lower value
In short: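 Complex tumor spheroids combined malignant cells with endothelial cells and mesenchymal stem cells. DNA-damaging drugs and DNA repair inhibitors were tested alone and in combination, at half-log dilutions down from clinical Cmax (top 10 microM if Cmax unknown), 0.25% DMSO final.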

Cc1cc(C)c(CNC(=O)c2cc(-c3ccc(CN4CCOCC4)cc3)cc3c2cnn3C2CCCC2)c(=O)[nH]1 + COc1cc2c(cc1O)CCNC21CSC2c3c(OC(C)=O)c(C)c4c(c3C(COC1=O)N1C(O)C3Cc5cc(C)c(OC)c(O)c5C(C21)N3C)OCO4
pIC50 (second compound 30 pM): < 5.00 | pIC50 (second compound 94.9 pM): < 5.00 | pIC50 (second compound 0.0003 µM): 5.61 | pIC50 (second compound 0.000949 µM): > 7.50 | pIC50 (second compound 0.003 µM): > 7.50 | viability, T/C (second compound 30 pM, first compound 0.0316 µM): 107% | viability, T/C (second compound 30 pM, first compound 0.1 µM): 93.7% | viability, T/C (second compound 30 pM, first compound 0.316 µM): 102% | viability, T/C (second compound 30 pM, first compound 1 µM): 85.3% | viability, T/C (second compound 30 pM, first compound 3.16 µM): 73.8% | viability, T/C (second compound 30 pM, first compound 10 µM): 60.2% | viability, T/C (second compound 94.9 pM, first compound 0.0316 µM): 98.4% | viability, T/C (second compound 94.9 pM, first compound 0.1 µM): 107% | viability, T/C (second compound 94.9 pM, first compound 0.316 µM): 104% | viability, T/C (second compound 94.9 pM, first compound 1 µM): 86.9% | viability, T/C (second compound 94.9 pM, first compound 3.16 µM): 79.2% | viability, T/C (second compound 94.9 pM, first compound 10 µM): 51.1% | viability, T/C (second compound 0.0003 µM, first compound 0.0316 µM): 63.8% | viability, T/C (second compound 0.0003 µM, first compound 0.1 µM): 67.3% | viability, T/C (second compound 0.0003 µM, first compound 0.316 µM): 62.6% | viability, T/C (second compound 0.0003 µM, first compound 1 µM): 50.4% | viability, T/C (second compound 0.0003 µM, first compound 3.16 µM): 48.7% | viability, T/C (second compound 0.0003 µM, first compound 10 µM): 42.2% | viability, T/C (second compound 0.000949 µM, first compound 0.0316 µM): 49.3% | viability, T/C (second compound 0.000949 µM, first compound 0.1 µM): 43.8% | viability, T/C (second compound 0.000949 µM, first compound 0.316 µM): 39.7% | viability, T/C (second compound 0.000949 µM, first compound 1 µM): 43.1% | viability, T/C (second compound 0.000949 µM, first compound 3.16 µM): 35.2% | viability, T/C (second compound 0.000949 µM, first compound 10 µM): 10.1% | viability, T/C (second compound 0.003 µM, first compound 0.0316 µM): 1.12% | viability, T/C (second compound 0.003 µM, first compound 0.1 µM): 1.08% | viability, T/C (second compound 0.003 µM, first compound 0.316 µM): 0.94% | viability, T/C (second compound 0.003 µM, first compound 1 µM): 1.18% | viability, T/C (second compound 0.003 µM, first compound 3.16 µM): 0.93% | viability, T/C (second compound 0.003 µM, first compound 10 µM): 0.96%
